Experimental data taken from the supplement of paper PMC5908809.

Assays:
[1] = tested on: normal NK cells expanded with K562-aAPC; test: percent inhibition of viability; higher = more inhibition; conditions: 72 h, IL-2 2.5 ng/mL
Procedure: (§1)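 Drug sensitivity and resistance testing on K562-aAPC-expanded normal NK cells: 5 concentrations (10-fold steps over a 10,000-fold range), 72 h at 37 °C, viability by CellTiter-Glo normalised to DMSO and benzethonium chloride controls; DSS from the fitted curve.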

DERL-7 (IL-2 2.5 ng/mL) [2] = test: as above; conditions: 72 h
IMC-1 (IL-2 20 ng/mL) [3] = test: as above; conditions: 72 h
KAI3 (IL-2 2.5 ng/mL) [4] = test: as above; conditions: 72 h
KHYG-1 (IL-2 2.5 ng/mL) [5] = test: as above; conditions: 72 h
NK-92 (IL-2 2.5 ng/mL) [6] = test: as above; conditions: 72 h
NK-YS (IL-2 2.5 ng/mL) [7] = test: as above; conditions: 72 h
NKL (IL-2 2.5 ng/mL) [8] = test: as above; conditions: 72 h
SNK-6 (IL-2 2.5 ng/mL) [9] = test: as above; conditions: 72 h
YT (IL-2 2.5 ng/mL) [10] = test: as above; conditions: 72 h
[11] = tested on: normal primary NK cells, pool 1 (3 donors) (IL-2 2.5 ng/mL); test: as above; conditions: 72 h
[12] = tested on: normal primary NK cells, pool 1 (3 donors), resting (IL-2 0 ng/mL); test: as above; conditions: 72 h
[13] = tested on: normal primary NK cells, pool 2 (3 donors) (IL-2 2.5 ng/mL); test: as above; conditions: 72 h
[14] = tested on: normal primary NK cells, pool 3 (3 donors) (IL-2 2.5 ng/mL); test: as above; conditions: 72 h
[15] = tested on: normal NK cells expanded with K562-aAPC; test: drug sensitivity score (DSS) (DSS units); higher = more sensitive; extreme values may be limits of the assay; conditions: 72 h; IL-2 2.5 ng/mL
Procedure: as §1

DERL-7 (IL-2 2.5 ng/mL) [16] = test: as above; conditions: 72 h
IMC-1 (IL-2 20 ng/mL) [17] = test: as above; conditions: 72 h
KAI3 (IL-2 2.5 ng/mL) [18] = test: as above; conditions: 72 h
KHYG-1 (IL-2 2.5 ng/mL) [19] = test: as above; conditions: 72 h
NK-92 (IL-2 2.5 ng/mL) [20] = test: as above; conditions: 72 h
NK-YS (IL-2 2.5 ng/mL) [21] = test: as above; conditions: 72 h
NKL (IL-2 2.5 ng/mL) [22] = test: as above; conditions: 72 h
SNK-6 (IL-2 2.5 ng/mL) [23] = test: as above; conditions: 72 h
YT (IL-2 2.5 ng/mL) [24] = test: as above; conditions: 72 h
[25] = tested on: normal primary NK cells, pool 1 (3 donors) (IL-2 2.5 ng/mL); test: as above; conditions: 72 h
[26] = tested on: normal primary NK cells, pool 1 (3 donors), resting (IL-2 0 ng/mL); test: as above; conditions: 72 h
[27] = tested on: normal primary NK cells, pool 2 (3 donors) (IL-2 2.5 ng/mL); test: as above; conditions: 72 h
[28] = tested on: normal primary NK cells, pool 3 (3 donors) (IL-2 2.5 ng/mL); test: as above; conditions: 72 h

COc1cc(OC)c(/C=C/S(=O)(=O)Cc2ccc(OC)c(NCC(=O)O)c2)c(OC)c1 [Rigosertib] (max concentration tested 10000 nM)
percent inhibition of viability [%]
Conditions	1 nM	10 nM	100 nM	1000 nM	10000 nM
DERL-7 (IL-2 2.5 ng/mL) [2]	-3.53	3.03	91	98	97.8
IMC-1 (IL-2 20 ng/mL) [3]	-6.34	-1.76	93.8	99.2	97.8
KAI3 (IL-2 2.5 ng/mL) [4]	-3.07	5.22	55	71.9	67.5
KHYG-1 (IL-2 2.5 ng/mL) [5]	-1.12	-2.53	96.6	102	97.6
NK-92 (IL-2 2.5 ng/mL) [6]	-6.11	2.36	77.7	97.1	94.3
NK-YS (IL-2 2.5 ng/mL) [7]	-0.07	0.08	70.9	76.8	77.4
NKL (IL-2 2.5 ng/mL) [8]	-16.2	-17.7	87.4	92.2	85.4
SNK-6 (IL-2 2.5 ng/mL) [9]	-14.2	3	76.5	95.2	97.2
YT (IL-2 2.5 ng/mL) [10]	-2.58	3.15	82.9	98.4	95.7
[1]	-1.17	-9.48	-1.76	57.7	82.7
[11]	-11.3	-13.9	-2.02	15.3	45.3
[12]	-8.83	-4.84	6.87	37.8	69.8
[13]	-8.68	-8.95	-9.12	13.6	37.4
[14]	-13.6	-15.7	-12.6	-0.93	21.3

Conditions	drug sensitivity score
DERL-7 (IL-2 2.5 ng/mL) [16]	29.1
IMC-1 (IL-2 20 ng/mL) [17]	29.3
KAI3 (IL-2 2.5 ng/mL) [18]	20.3
KHYG-1 (IL-2 2.5 ng/mL) [19]	29.8
NK-92 (IL-2 2.5 ng/mL) [20]	26.8
NK-YS (IL-2 2.5 ng/mL) [21]	23
NKL (IL-2 2.5 ng/mL) [22]	26.7
SNK-6 (IL-2 2.5 ng/mL) [23]	26.8
YT (IL-2 2.5 ng/mL) [24]	27.8
[15]	11.3
[25]	4.54
[26]	8.37
[27]	3.7
[28]	0.62

CN[C@@H](C)C(=O)N[C@H](C(=O)N1CCC[C@H]1c1nc(C(=O)c2ccc(F)cc2)cs1)C1CCCCC1 [LCL161] (max concentration tested 25000 nM)
percent inhibition of viability [%]
Conditions	2.5 nM	25 nM	250 nM	2500 nM	25000 nM
DERL-7 (IL-2 2.5 ng/mL) [2]	3.1	13	11.3	36.6	64.2
IMC-1 (IL-2 20 ng/mL) [3]	-0.09	4.35	9.97	0.82	31.3
KAI3 (IL-2 2.5 ng/mL) [4]	-3.88	-6.89	-0.05	26.9	67.2
KHYG-1 (IL-2 2.5 ng/mL) [5]	-3.69	-2.27	43.7	87.9	86.8
NK-92 (IL-2 2.5 ng/mL) [6]	-9.41	4.44	14.3	35.9	87.5
NK-YS (IL-2 2.5 ng/mL) [7]	-6.78	-9.82	-8.28	-8.9	20.8
NKL (IL-2 2.5 ng/mL) [8]	-0.58	12.2	1.43	5.86	46.8
SNK-6 (IL-2 2.5 ng/mL) [9]	9.58	4.06	-3.23	-1.7	42.3
YT (IL-2 2.5 ng/mL) [10]	4.24	0.05	5.12	15.8	49.9
[1]	3.9	9.45	17.1	42	71.6
[11]	-2.53	-6.03	25.8	58	91
[12]	-36.7	-17.7	-2.19	43.8	88.3
[13]	-10.3	4.59	24.6	55.9	80.5
[14]	-5.71	1.98	19.5	51.1	75.2

Conditions	drug sensitivity score
DERL-7 (IL-2 2.5 ng/mL) [16]	8.62
IMC-1 (IL-2 20 ng/mL) [17]	1.5
KAI3 (IL-2 2.5 ng/mL) [18]	7.35
KHYG-1 (IL-2 2.5 ng/mL) [19]	21.5
NK-92 (IL-2 2.5 ng/mL) [20]	9.07
NK-YS (IL-2 2.5 ng/mL) [21]	0.39
NKL (IL-2 2.5 ng/mL) [22]	3.42
SNK-6 (IL-2 2.5 ng/mL) [23]	1.99
YT (IL-2 2.5 ng/mL) [24]	4.58
[15]	10.4
[25]	14
[26]	10.4
[27]	13.6
[28]	12

N#Cc1ccc2[nH]c(O)c(-c3ccc(CN4CCOCC4)cn3)c2c1 [AZD-1080] (max concentration tested 10000 nM)
percent inhibition of viability [%]
Conditions	1 nM	10 nM	100 nM	1000 nM	10000 nM
DERL-7 (IL-2 2.5 ng/mL) [2]	0.69	-2.27	-0.41	-4.2	88.5
IMC-1 (IL-2 20 ng/mL) [3]	-6.19	-4.98	-2.55	-0.22	68.7
KAI3 (IL-2 2.5 ng/mL) [4]	-2.28	-5.79	-9.97	-21.1	16.1
KHYG-1 (IL-2 2.5 ng/mL) [5]	-9.77	-11.1	-7.95	-10.2	15.1
NK-92 (IL-2 2.5 ng/mL) [6]	-5.77	-9.41	-10.5	-11.2	-14.5
NK-YS (IL-2 2.5 ng/mL) [7]	-7.92	-9.02	-9.19	-12.2	14.6
NKL (IL-2 2.5 ng/mL) [8]	-2.17	-4.57	-11.4	-10.8	26.2
SNK-6 (IL-2 2.5 ng/mL) [9]	-12	-18.9	-7.02	-36.2	-41.6
YT (IL-2 2.5 ng/mL) [10]	-4.13	-5.06	-2.61	-7.8	19
[1]	-8.89	-11.1	-9.66	-4.69	17.9
[11]	-13.1	1.31	-13.3	-7.59	-4.41
[12]	-0.71	6.84	6.15	-35.3	-109
[13]	3.02	1.99	-1.33	-5.26	2.97
[14]	6.51	4.2	7.89	-9.63	14.5

Conditions	drug sensitivity score
DERL-7 (IL-2 2.5 ng/mL) [16]	4.59
IMC-1 (IL-2 20 ng/mL) [17]	3.76
KAI3 (IL-2 2.5 ng/mL) [18]	0.09
KHYG-1 (IL-2 2.5 ng/mL) [19]	0.09
NK-92 (IL-2 2.5 ng/mL) [20]	0
NK-YS (IL-2 2.5 ng/mL) [21]	0.06
NKL (IL-2 2.5 ng/mL) [22]	0.66
SNK-6 (IL-2 2.5 ng/mL) [23]	0
YT (IL-2 2.5 ng/mL) [24]	0.3
[15]	0.28
[25]	0
[26]	0
[27]	0
[28]	0.08
